Laboratory results taken from patent US5281608A, “Substituted tetrahydropyrido[3',4':4,5]-pyrrolo[3,2-c]quinolines” (American Home Products Corporation, priority 1992, dated 1994).
≈ marks a conversion by molar mass, not a printed value.

Columns and labels:
[1] = tested on: rabbit articular chondrocytes (IL-1-induced neutral protease release); experiment: Inhibition of IL-1-induced release of neutral protease from rabbit articular chondrocytes; assay type: cell-based, rabbit (Male New Zealand White); settings: Oryctolagus cuniculus, Chondrocyte, human IL-1 stimulated, 24 h
Method: The ability of the compounds of the invention to inhibit interleukin 1 is measured by the ability of the test compounds to inhibit the IL-1-induced release of neutral protease from rabbit articular chondrocytes.
Male New Zealand White rabbits are anesthetized with 50 mg/kg of ketamine (i.m.) and killed by an intracardiac injection of 3 mls. of Nembutal. The knee joints of both legs are resected and the articular surfaces are exposed. Cartilage slices are obtained using a scalpel and are placed in a tissue culture dish (100 mm diameter) containing 10 mls of Hank's balanced salt solution (HBSS). The chondrocytes within the cartilage slices are then liberated by a series of enzyme digestions. The slices are incubated for 10 minutes at 37° C. in 0.05% hyaluronidase (Sigma H-3884), rinsed with HBSS and incubated with 0.2% trypsin (Sigma T-2395) for 10 minutes at 37° C. The slices are rinsed again and incubated for 10 minutes at 37° C. with 1.2% collagenase (Sigma C-5138). The slices are then rinsed again with HBSS and resuspended in 10 ml of Ham's F-12 medium containing 10% fetal bovine calf serum (FCS) and 0.2 % collagenase and incubated overnight at 37° C. in a 5% CO2 incubator. The next day, the medium containing the digested cartilage fragments and liberated chondrocytes is transferred to a 15 ml centrifuge tube and the cells are collected by centrifugation and washed twice and resuspended in Ham's F-12 medium. The cells are then plated into 24-well tissue culture plates (2×10^5 cells/well) and incubated at 37° C. until confluent (usually 4-6 days).
The confluent chondrocytes are rinsed twice with serum-free Ham's F-12 medium and 1 ml is added to each well. Fifty μl of purified human IL 1 (100 Units/ml; Genzyme Corporation, Boston, Mass.) is then added to stimulate these cells to secrete neutral protease. To measure drug effects, the cells are treated with test compound 10 minutes prior to addition of IL-1. The standard screening dose is 10 μM. Twenty-four hours after IL-1 stimulation, supernatant fluids are collected and assayed for neutral protease activity.
The neutral protease activity of chondrocyte supernatant fluids is determined by their ability to degrade an insoluble protease substrate, azocoll (Sigma). Supernatants are treated for 10 minutes at room temperature with 350 μM p-aminophenylmurcuric acetate to activate the latent enzyme. Three hundred μl of supernatant is then mixed with 500μl of a 20 mg/ml suspension of azocoll and incubated at 37° C. for 18-24 hours with gentle rocking. The mixtures are centrifuged and the amount of substrate hydrolyzed is determined by measuring the absorbance of the supernatant at 520 nm.
Drug effects are calculated as the % change in enzyme activity (absorbance)by supernatants from drug-treated chondrocytes relative to enzyme activity of supernatants from vehicle-treated chondrocytes as follows: [formula]

[2] = tested on: rat limb bones (IL-1 induced bone resorption); experiment: Bone resorption assay (45Ca release from rat limb bones), IL-1 induced; assay type: cell-based, rat (Sprague-Dawley CD); settings: 48 h; for IC50: Rattus norvegicus, read-out: Inhibition of Bone Resorption, IL-1 Induced (IC50)
Method: (§1) The ability of the compounds of the invention to modify the process of bone resorption is evaluated in the bone resorption assay measuring ^45 Ca release from rat limb bones.
(§2) Limb bone preparation. Timed pregnant Sprague-Dawley CD® rats (Charles River) are administered 100 μCi ^45 CaCl2 (NEN calcium -45 NEZ-013) in 100 μl of 0.9% saline, subcutaneously, on day 18 of gestation. The rats are sacrificed the following day by CO2 asphyxiation. The fetuses are removed and the right forelimbs excised and placed in a Petri dish containing ice cold explant medium consisting of modified BGJb -Fitton Jackson media (custom formulation, Gibco No. 78-0088) adjusted to pH 7.3 to which 10 mM TES is added. The modified BGJb media is obtained without salts, glucose or bicarbonate and is supplemented before use with 0.1 mM MgCl2, 1.25 mM CaCl2, 5.3 mM KCl, 0.7 mM MgSO4, 130 mM NaCl, 1.0 mM NaH2 PO4, 1 g/L glucose, 50 mg/L Na acetate and 100 U/ml penicillin G. The medium is sterilized by passage through a 0.2 μ M filter (Nalge). Under a dissecting microscope, the bones are gently cleaned of adherent tissue and the cartilaginous ends removed. Incubation and drug treatment. The midshafts are placed, individually, on 3×3 mm squares of filter paper (Gelman GN-6 metricel filters; […] pore size) which rest on stainless steel screens in wells of 24-well culture plates containing 0.5 mL of preincubation medium. The preincubation medium is brought to 37° C. prior to transfer of bones. The preincubation medium consists of the modified BGJb medium (with salts and glucose as above), pH 7.3, containing 29 mM NaHCO3. After incubation for 18-24 hours at 37° C. in 5% CO2, the bones are transferred on their screen/filter paper supports to new plates containing, in a total volume of 0.5 mL/well at 37° C., the test compound diluted in preincubation medium supplemented with 15% heat inactivated horse serum (Gibco No. 230-6050), pH 7.3, with a bone resorption stimulating agent (e.g. parathyroid hormone [PTH] or interleukin-1 [IL-1]). For compounds that require nonaqueous solvents, dilutions are made from the appropriate stock solution with medium. In these instances, basal and bone resorption stimulated controls exposed to an equivalent concentration of the vehicle are included. An additional group of bones that have been subjected to boiling for 1 hour (kill control) are used to establish background, non cell mediated, exchange of ^45 Ca. The right ulna and radius from each fetus are used. Both bones are subjected to the same treatment and each treatment group consists of bones from 4 or more fetuses. Treatments are randomly assigned using a preclinical statistics program (PS-ALLOC). After a 48 hour incubation at 37° C. in 5% CO2, the bones are removed from the medium and extracted in 0.5 mL of 0.1N HCl for 1 or more days. Duplicate 150 μL aliquots of the incubation medium and the bone extract are analyzed for ^45 Ca radioactivity in 5 mL of liquid scintillation cocktail.
(§3) The percentage of bone ^45 Ca released into the medium is determined as follows: [formula] Results are normally expressed as the ratio of the percent ^45 Ca release of the experimental group versus the appropriate vehicle control, or as an IC50 value.

[3] = tested on: rat limb bones (PTH-induced bone resorption); experiment: Bone resorption assay (45Ca release from rat limb bones), PTH-induced; assay type: cell-based, rat (Sprague-Dawley CD); settings: 48 h; for IC50: Rattus norvegicus, read-out: Inhibition of Bone Resorption, PTH-Induced (IC50)
Method: as §1, §2, §3

| IC50 [2] | IC50 [3] | SMILES | inhibition at 10 µM [1] | Inhibition of Bone Resorption, IL-1 Induced (activity in words) [2] | Inhibition of Bone Resorption, PTH-Induced (activity in words) [3] | inhibition at 1 µM ([1]; dose 1 μM) |
| --- | --- | --- | --- | --- | --- | --- |
| 1.96 µg/mL (≈ 5.4 µM) | – | O=C(c1ccncc1)N1CCc2[nH]c3c(cnc4cc(Cl)ccc43)c2C1 [Example 8, 3-Chloro-8,9,10,11-tetrahydro-8-(4-pyridinylcarbonyl)-7H-pyrido[3',4':4,5]pyrrolo[3,2-c]quinoline] | 35% | Active | Active at 10 μg/ml | – |
| 0.307 µg/mL (≈ 0.873 µM) | 2.88 µg/mL (≈ 8.19 µM) | O=C(c1ccco1)N1CCc2[nH]c3c(cnc4cc(Cl)ccc43)c2C1 [Example 9, 3-Chloro-8-(2-furanylcarbonyl)-8,9,10,11-tetrahydro-7H-pyrido[3',4':4,5]pyrrolo[3,2-c]quinoline] | 36% | Active | Active | – |
| 0.018 µg/mL (≈ 0.0446 µM) | 0.144 µg/mL (≈ 0.357 µM) | O=S(=O)(c1cccs1)N1CCc2[nH]c3c(cnc4cc(Cl)ccc43)c2C1 [Example 11, 3-Chloro-8,9,10,11-tetrahydro-8-(2-thienylsulfonyl)-7H-pyrido [3',4':4,5]pyrrolo[3,2-c]quinoline] | – | Active | Active | < 20% |
| 0.76 µg/mL (≈ 2.01 µM) | 0.274 µg/mL (≈ 0.725 µM) | O=C(Oc1ccccc1)N1CCc2[nH]c3c(cnc4cc(Cl)ccc43)c2C1 [Example 12, 3-Chloro-7,9,10,11-tetrahydro-8H-pyrido[3',4':4,5]pyrrolo-[3,2-c]quinoline-8-carboxylic Acid Phenyl Ester] | < 20% | Active | Active | – |
